The test system of this experiment is MV-4-11 cells. Nature of the experiment: Gene expression microarray analysis (Affymetrix PrimeView) and GSEA. Particulars: MV-4-11 cells, 48 hours. The format is cell-based, human. On the set-up: RFU PODN (11730768_x_at) / Fold change /veh PODN (11730768_x_at) / RFU LINC00158 (11744669_a_at) / Fold change /veh LINC00158 (11744669_a_at) / RFU DUSP10 (11751237_a_at) / Fold change /veh DUSP10 (11751237_a_at) / RFU ID3 (11757404_x_at) / Fold change /veh ID3 (11757404_x_at) / RFU PLEKHG5 (11737974_s_at) / Fold change /veh PLEKHG5 (11737974_s_at) / RFU LRRC4B (11730491_at) / Fold change /veh LRRC4B (11730491_at) / RFU GIMAP4 (11747438_a_at) / Fold change /veh GIMAP4 (11747438_a_at) / RFU KRT8 (11758183_x_at) / Fold change /veh KRT8 (11758183_x_at) / RFU CNN1 (11734310_a_at) / Fold change /veh CNN1 (11734310_a_at) / RFU VPS37D (11726825_at) / Fold change /veh VPS37D (11726825_at) / RFU C10orf10 (11716522_x_at) / Fold change /veh C10orf10 (11716522_x_at) / RFU KIR2DL2 /// KIR2DL4 /// KIR2DL5A /// KIR2DL5B /// KIR2DS1 /// KIR2DS2 /// KIR2DS3 /// KIR2DS4 /// KIR3DL3 /// KIR3DL3 /// KIR3DS1 (11738374_at) / Fold change /veh KIR2DL2 /// KIR2DL4 /// KIR2DL5A /// KIR2DL5B /// KIR2DS1 /// KIR2DS2 /// KIR2DS3 /// KIR2DS4 /// KIR3DL3 /// KIR3DL3 /// KIR3DS1 (11738374_at) / RFU C1QL1 (11718748_at) / Fold change /veh C1QL1 (11718748_at) / RFU TMPRSS4 (11747572_a_at) / Fold change /veh TMPRSS4 (11747572_a_at) / RFU HAMP (11756126_x_at) / Fold change /veh HAMP (11756126_x_at) / RFU RNFT2 (11725882_a_at) / Fold change /veh RNFT2 (11725882_a_at) / RFU NR4A2 (11747474_a_at) / Fold change /veh NR4A2 (11747474_a_at) / RFU ABCC12 (11746883_a_at) / Fold change /veh ABCC12 (11746883_a_at) / RFU TMEM136 (11760407_x_at) / Fold change /veh TMEM136 (11760407_x_at) / RFU CLDN22 /// WWC2 (11732394_at) / Fold change /veh CLDN22 /// WWC2 (11732394_at) / RFU HLA-DPB1 (11760878_x_at) / Fold change /veh HLA-DPB1 (11760878_x_at) / RFU SPINT1 (11716480_a_at) / Fold change /veh SPINT1 (11716480_a_at) / RFU GAP43 (11754022_s_at) / Fold change /veh GAP43 (11754022_s_at) / RFU A4GNT (11735810_at) / Fold change /veh A4GNT (11735810_at) / RFU PRB3 (11715151_x_at) / Fold change /veh PRB3 (11715151_x_at) / RFU TUBB4B (11761932_at) / Fold change /veh TUBB4B (11761932_at) / RFU CAPN14 (11732068_a_at) / Fold change /veh CAPN14 (11732068_a_at) / RFU TMCC2 (11721928_a_at) / Fold change /veh TMCC2 (11721928_a_at) / RFU IRGQ (11745062_a_at) / Fold change /veh IRGQ (11745062_a_at) / RFU FAM174B (11720279_a_at) / Fold change /veh FAM174B (11720279_a_at) / RFU TMPRSS4 (11748680_a_at) / Fold change /veh TMPRSS4 (11748680_a_at) / RFU FAM212B (11763350_a_at) / Fold change /veh FAM212B (11763350_a_at) / RFU PLEKHG5 (11743358_a_at) / Fold change /veh PLEKHG5 (11743358_a_at) / RFU ZSCAN30 (11745921_a_at) / Fold change /veh ZSCAN30 (11745921_a_at) / RFU CMKLR1 (11741424_a_at) / Fold change /veh CMKLR1 (11741424_a_at) / RFU LOC101060620 /// MAPK8IP1 (11723275_at) / Fold change /veh LOC101060620 /// MAPK8IP1 (11723275_at) / RFU SPTSSB (11747773_x_at) / Fold change /veh SPTSSB (11747773_x_at) / RFU PRSS12 (11739890_at) / Fold change /veh PRSS12 (11739890_at) / RFU BIN1 (11741810_x_at) / Fold change /veh BIN1 (11741810_x_at) / RFU WNT11 (11732464_a_at) / Fold change /veh WNT11 (11732464_a_at) / RFU C10orf10 (11716521_a_at) / Fold change /veh C10orf10 (11716521_a_at) / RFU C5orf56 (11738089_at) / Fold change /veh C5orf56 (11738089_at) / RFU CYB561 (11721691_x_at) / Fold change /veh CYB561 (11721691_x_at) / RFU ANKRD19P (11752326_a_at) / Fold change /veh ANKRD19P (11752326_a_at) / RFU OR2T12 /// OR2T33 /// OR2T8 (11738714_s_at) / Fold change /veh OR2T12 /// OR2T33 /// OR2T8 (11738714_s_at) / RFU VCAN (11748164_a_at) / Fold change /veh VCAN (11748164_a_at) / RFU JSRP1 (11732532_at) / Fold change /veh JSRP1 (11732532_at) / RFU KRTAP10-11 (11738290_x_at) / Fold change /veh KRTAP10-11 (11738290_x_at) / RFU MYO3A (11730013_a_at) / Fold change /veh MYO3A (11730013_a_at) / RFU EBF3 (11725865_a_at) / Fold change /veh EBF3 (11725865_a_at) / RFU CAMK2N1 (11719241_x_at) / Fold change /veh CAMK2N1 (11719241_x_at) / RFU C5orf56 (11738088_a_at) / Fold change /veh C5orf56 (11738088_a_at) / RFU OLFML3 (11715873_a_at) / Fold change /veh OLFML3 (11715873_a_at) / RFU LOC100653217 /// NTM (11731650_a_at) / Fold change /veh LOC100653217 /// NTM (11731650_a_at) / RFU MAPK11 (11762145_a_at) / Fold change /veh MAPK11 (11762145_a_at) / RFU FIZ1 (11724087_x_at) / Fold change /veh FIZ1 (11724087_x_at) / RFU OASL (11726364_x_at) / Fold change /veh OASL (11726364_x_at) / RFU SOX15 (11748057_x_at) / Fold change /veh SOX15 (11748057_x_at) / RFU CD79A (11719716_a_at) / Fold change /veh CD79A (11719716_a_at) / RFU HIST1H1D (11736915_at) / Fold change /veh HIST1H1D (11736915_at) / RFU CASKIN2 (11723855_a_at) / Fold change /veh CASKIN2 (11723855_a_at) / RFU LOC730098 (11760151_x_at) / Fold change /veh LOC730098 (11760151_x_at) / RFU OR4N2 (11742367_at) / Fold change /veh OR4N2 (11742367_at) / RFU PRRT2 (11749266_a_at) / Fold change /veh PRRT2 (11749266_a_at) / RFU SNX32 (11753110_a_at) / Fold change /veh SNX32 (11753110_a_at) / RFU CDHR5 (11726645_a_at) / Fold change /veh CDHR5 (11726645_a_at) / RFU RCAN1 (11760418_a_at) / Fold change /veh RCAN1 (11760418_a_at) / RFU FAM167A (11723789_a_at) / Fold change /veh FAM167A (11723789_a_at) / RFU FAM26E (11764081_at) / Fold change /veh FAM26E (11764081_at) / RFU ISYNA1 (11749810_s_at) / Fold change /veh ISYNA1 (11749810_s_at) / RFU ACY1 (11761880_at) / Fold change /veh ACY1 (11761880_at) / RFU 11764098_at / Fold change /veh 11764098_at / RFU SAMD14 (11745864_x_at) / Fold change /veh SAMD14 (11745864_x_at) / RFU NPB (11741838_a_at) / Fold change /veh NPB (11741838_a_at) / RFU TMPRSS6 (11731388_a_at) / Fold change /veh TMPRSS6 (11731388_a_at) / RFU KRTAP10-2 (11738614_at) / Fold change /veh KRTAP10-2 (11738614_at) / RFU ARHGAP8 /// PRR5-ARHGAP8 (11727945_x_at) / Fold change /veh ARHGAP8 /// PRR5-ARHGAP8 (11727945_x_at) / RFU KRTAP5-7 /// NADSYN1 (11734609_at) / Fold change /veh KRTAP5-7 /// NADSYN1 (11734609_at) / RFU RASL12 (11751679_a_at) / Fold change /veh RASL12 (11751679_a_at) / RFU CDKN2B (11736163_a_at) / Fold change /veh CDKN2B (11736163_a_at) / RFU PRF1 (11729649_at) / Fold change /veh PRF1 (11729649_at) / RFU, ZNF638 /// ZNF638-IT1 / Fold change vs veh, ZNF638 /// ZNF638-IT1 / RFU, PANK3 / Fold change vs veh, PANK3 / RFU, SH3YL1 / Fold change vs veh, SH3YL1 / RFU, ZEB2 / Fold change vs veh, ZEB2 / RFU, NRIP1 / Fold change vs veh, NRIP1 / RFU, PTTG1IP / Fold change vs veh, PTTG1IP / RFU, CAPN2 / Fold change vs veh, CAPN2 / RFU, MED14 / Fold change vs veh, MED14 / RFU, SNORA58 / Fold change vs veh, SNORA58 / RFU, C1orf63 / Fold change vs veh, C1orf63 / RFU, LRRFIP1 / Fold change vs veh, LRRFIP1 / RFU, NDUFAF7 / Fold change vs veh, NDUFAF7 / RFU, SLC12A2 / Fold change vs veh, SLC12A2 / RFU, IBTK / Fold change vs veh, IBTK / RFU, ESF1 / Fold change vs veh, ESF1 / Fold change vs veh, TMEM50B / RFU, TAOK1 / Fold change vs veh, TAOK1 / RFU, ACBD3 / Fold change vs veh, ACBD3 / RFU, TMA16 / Fold change vs veh, TMA16 / RFU, RWDD3 / Fold change vs veh, RWDD3 / RFU, BCAT1 / Fold change vs veh, BCAT1 / RFU, EDEM3 / Fold change vs veh, EDEM3 / RFU, TMEM33 / Fold change vs veh, TMEM33 / RFU, WDR75 / Fold change vs veh, WDR75 / RFU, AHCTF1 / Fold change vs veh, AHCTF1 / RFU, TFRC / Fold change vs veh, TFRC / RFU, ZDHHC17 / Fold change vs veh, ZDHHC17 / RFU, NOM1 / Fold change vs veh, NOM1 / RFU, ARL8B / Fold change vs veh, ARL8B / RFU, ZBTB11 / Fold change vs veh, ZBTB11 / RFU, TAMM41 / Fold change vs veh, TAMM41 / RFU, KIAA1704 /// LOC100996395 / Fold change vs veh, KIAA1704 /// LOC100996395 / RFU, ING1 / Fold change vs veh, ING1 / RFU, TRMT61B / Fold change vs veh, TRMT61B / RFU, FUBP3 / Fold change vs veh, FUBP3 / RFU, TP53 / Fold change vs veh, TP53 / RFU, TNKS2 / Fold change vs veh, TNKS2 / RFU, ZFP14 / Fold change vs veh, ZFP14 / RFU, ACTR2 / Fold change vs veh, ACTR2 / RFU, PPP3R1 / Fold change vs veh, PPP3R1 / RFU, PIK3R1 / Fold change vs veh, PIK3R1 / RFU, HNRNPA1 / Fold change vs veh, HNRNPA1 / RFU, RNF170 / Fold change vs veh, RNF170 / RFU, ZNF28 / Fold change vs veh, ZNF28 / RFU, RNGTT / Fold change vs veh, RNGTT / RFU, OGT / Fold change vs veh, OGT / RFU, BRD1 / Fold change vs veh, BRD1 / RFU, MARS / Fold change vs veh, MARS / RFU, ZNF655 / Fold change vs veh, ZNF655 / RFU, FAHD1 / Fold change vs veh, FAHD1 / RFU, BDP1 / Fold change vs veh, BDP1 / RFU, LRRCC1 / Fold change vs veh, LRRCC1 / RFU, ARID1A / Fold change vs veh, ARID1A / RFU, ZNF146 / Fold change vs veh, ZNF146 / RFU, ZNF330 / Fold change vs veh, ZNF330 / RFU, GPN3 / Fold change vs veh, GPN3 / RFU, C9orf123 / Fold change vs veh, C9orf123 / RFU, N4BP2L2 / Fold change vs veh, N4BP2L2 / RFU, ARFIP1 / Fold change vs veh, ARFIP1 / RFU, FAM179B / Fold change vs veh, FAM179B / RFU, BCL10 / Fold change vs veh, BCL10 / RFU, UHRF1BP1L / Fold change vs veh, UHRF1BP1L / RFU, BET1 / Fold change vs veh, BET1 / RFU, CNOT2 / Fold change vs veh, CNOT2 / RFU, ZNF268 / Fold change vs veh, ZNF268 / Fold change vs veh, ZNF507 / RFU, DGCR2 / Fold change vs veh, DGCR2 / RFU, WDSUB1 / Fold change vs veh, WDSUB1 / Fold change vs veh, HSP90B1 /// MIR3652 / RFU, ADSS / Fold change vs veh, ADSS / RFU, GK / Fold change vs veh, GK / RFU, ZNF148 / Fold change vs veh, ZNF148 / RFU, TAF9 / Fold change vs veh, TAF9 / RFU, SLC1A5 / Fold change vs veh, SLC1A5 / RFU, SLMO2 / Fold change vs veh, SLMO2 / RFU, ABCC4 / Fold change vs veh, ABCC4 / RFU, LOC101060439 /// RAP1B / Fold change vs veh, LOC101060439 /// RAP1B / RFU, RFX7 / Fold change vs veh, RFX7 / RFU, GTPBP10 / Fold change vs veh, GTPBP10 / RFU, CNEP1R1 / Fold change vs veh, CNEP1R1 / RFU, BIVM-ERCC5 /// ERCC5 / Fold change vs veh, BIVM-ERCC5 /// ERCC5 / RFU, ILF3 / Fold change vs veh, ILF3 / RFU 11762660_at / Fold change /veh 11762660_at / RFU VCAN (11757783_s_at) / Fold change /veh VCAN (11757783_s_at) / RFU DDX43 (11728927_at) / Fold change /veh DDX43 (11728927_at) / RFU KRT8 (11758188_x_at) / Fold change /veh KRT8 (11758188_x_at) / RFU NKD1 (11759106_at) / Fold change /veh NKD1 (11759106_at) / RFU SRD5A1 (11742802_a_at) / Fold change /veh SRD5A1 (11742802_a_at) / RFU TPSAB1 /// TPSB2 (11721975_s_at) / Fold change /veh TPSAB1 /// TPSB2 (11721975_s_at) / RFU GSTM3 (11746129_a_at) / Fold change /veh GSTM3 (11746129_a_at) / RFU IL23R (11737362_x_at) / Fold change /veh IL23R (11737362_x_at) / RFU TMEM51 (11727254_a_at) / Fold change /veh TMEM51 (11727254_a_at) / RFU PIWIL2 (11732686_x_at) / Fold change /veh PIWIL2 (11732686_x_at) / RFU ORM1 (11744905_x_at) / Fold change /veh ORM1 (11744905_x_at) / RFU CCDC152 (11743942_at) / Fold change /veh CCDC152 (11743942_at) / RFU ECM1 (11717891_a_at) / Fold change /veh ECM1 (11717891_a_at) / RFU IL23R (11748794_a_at) / Fold change /veh IL23R (11748794_a_at) / RFU TNFAIP8L3 (11732012_x_at) / Fold change /veh TNFAIP8L3 (11732012_x_at) / RFU MBOAT4 (11741988_at) / Fold change /veh MBOAT4 (11741988_at) / RFU 11764193_at / Fold change /veh 11764193_at / RFU TMEM53 (11763286_at) / Fold change /veh TMEM53 (11763286_at) / RFU MAGEB2 (11727129_at) / Fold change /veh MAGEB2 (11727129_at) / RFU TMEM200A (11744735_a_at) / Fold change /veh TMEM200A (11744735_a_at) / RFU CCDC152 (11751479_a_at) / Fold change /veh CCDC152 (11751479_a_at) / RFU FAM211A (11726209_a_at) / Fold change /veh FAM211A (11726209_a_at) / RFU RGS16 (11746705_a_at) / Fold change /veh RGS16 (11746705_a_at) / RFU VCAN (11755009_s_at) / Fold change /veh VCAN (11755009_s_at) / RFU RHOB (11743442_s_at) / Fold change /veh RHOB (11743442_s_at) / RFU RGS16 (11720943_a_at) / Fold change /veh RGS16 (11720943_a_at) / RFU RGS16 (11720944_at) / Fold change /veh RGS16 (11720944_at) / RFU, VPS4B / Fold change vs veh, VPS4B / RFU, CREB1 / Fold change vs veh, CREB1 / RFU, DNAJC13 / Fold change vs veh, DNAJC13 / RFU, GNAQ / Fold change vs veh, GNAQ / RFU, CDK5R1 / Fold change vs veh, CDK5R1 / RFU, ZRANB3 / Fold change vs veh, ZRANB3 / RFU, CUL4A / Fold change vs veh, CUL4A / RFU, CCNY / Fold change vs veh, CCNY / RFU, UFL1 / Fold change vs veh, UFL1 / RFU, COG3 / Fold change vs veh, COG3 / RFU, DIAPH2 / Fold change vs veh, DIAPH2 / RFU, SKA2 / Fold change vs veh, SKA2 / RFU, AFF3 / Fold change vs veh, AFF3 / RFU, LMF1 / Fold change vs veh, LMF1 / RFU, IPO11 / Fold change vs veh, IPO11 / RFU, DFFB / Fold change vs veh, DFFB / RFU, FOXP1 / Fold change vs veh, FOXP1 / RFU, CARD8 / Fold change vs veh, CARD8 / RFU, STRN3 / Fold change vs veh, STRN3 / RFU, ADK / Fold change vs veh, ADK / RFU, RASSF2 / Fold change vs veh, RASSF2 / RFU, WIPF1 / Fold change vs veh, WIPF1 / RFU, LARP1B / Fold change vs veh, LARP1B / RFU, RASA1 / Fold change vs veh, RASA1 / RFU, RB1 / Fold change vs veh, RB1 / RFU, PPFIA1 / Fold change vs veh, PPFIA1 / RFU, MAT2A / Fold change vs veh, MAT2A / RFU, CCT5 / Fold change vs veh, CCT5 / RFU, WDR92 / Fold change vs veh, WDR92 / RFU, CUX1 / Fold change vs veh, CUX1 / RFU, TTC7A / Fold change vs veh, TTC7A / RFU, TMEM135 / Fold change vs veh, TMEM135 / RFU, DEPTOR / Fold change vs veh, DEPTOR / RFU, CPM / Fold change vs veh, CPM / RFU, DNAJB6 / Fold change vs veh, DNAJB6 / RFU, CACNA2D3 / Fold change vs veh, CACNA2D3 / RFU, DTX4 / Fold change vs veh, DTX4 / RFU, TFCP2 / Fold change vs veh, TFCP2 / RFU, GMCL1 /// GMCL1P1 / Fold change vs veh, GMCL1 /// GMCL1P1 / RFU, AEBP2 / Fold change vs veh, AEBP2 / RFU, SNHG1 /// SNORD22 /// SNORD25 /// SNORD26 /// SNORD27 /// SNORD28 /// SNORD29 /// SNORD31 / Fold change vs veh, SNHG1 /// SNORD22 /// SNORD25 /// SNORD26 /// SNORD27 /// SNORD28 /// SNORD29 /// SNORD31 / Fold change (Aza/veh), C12orf56 (ProbeSet 11735607_a_at) / Fold change (ACY-1035/veh), C12orf56 (ProbeSet 11735607_a_at) / Fold change (Aza/veh), FGFR1OP (ProbeSet 11751329_s_at) / Fold change (ACY-1035/veh), FGFR1OP (ProbeSet 11751329_s_at) / Fold change (Aza/veh), VPS36 (ProbeSet 11739960_a_at) / Fold change (ACY-1035/veh), VPS36 (ProbeSet 11739960_a_at) / RFU SYPL1 (11715823_x_at) / Fold change /veh SYPL1 (11715823_x_at) / RFU IGFBP7 (11715501_s_at) / Fold change /veh IGFBP7 (11715501_s_at) / RFU REEP3 (11722064_at) / Fold change /veh REEP3 (11722064_at) / RFU IGLL1 (11728026_x_at) / Fold change /veh IGLL1 (11728026_x_at): dose or concentration left out as unconfirmed.

The source of these data is PMC5218480 (PLoS ONE, 2017).

In the case of `Nc1ccc(-c2cccs2)cc1NC(=O)c1ccc2c(c1)cc(C1CC1)n2CCN1CCOCC1` [ACY-1035], the “RFU LOC101060620 /// MAPK8IP1 (11723275_at)” value was determined as 10.15 RFU.
